Assays:
[1] = Draves Wetting Test (ASTM D2281-68), wet-out time; format: physicochemical; conditions: 0.05 wt % actives in DI water, average of 3
Procedure: The surface wetting ability of the amine oxides with linear and branched hydrophobes from Examples 43 to 45 were compared using the Draves Wetting Test (ASTM D2281-68). A 0.05 wt % (actives basis) solution of amine oxide in deionized (DI) water was used to determine the Draves wet-out time (WOT) in seconds. 0.75 g of surfactant was dispersed in 1,500 ml of DI water. The wet-out time (WOT) in seconds is recorded in Table 7 (average of 3 measurements). LAO is Lauramine oxide (linear hydrophobe), Sigma catalog number 40236.

[2] = Foam height, high shear (Waring blender) in deionized water; format: physicochemical; conditions: for Foam volume (ml) 5 min / Foam volume (ml) Initial: 0.05 wt % in deionized water; for Foam volume (ml) 5 min: after 5 min; for Foam volume (ml) Initial: blended High 30 s
Procedure: The surface foam volume and persistence of the amine oxides with linear and branched hydrophobes from Examples 43 and 44 were compared. A 0.05 wt % (actives basis) solution of the test surfactant was made in deionized water. 250 ml of the test solution was added the beaker of a Waring blender, capped, and then blended on High for 30 seconds and immediately transferred to a 1 L graduated cylinder. The total volume of foam plus liquid, as well as the liquid layer alone was recorded. The foam and liquid volumes were recorded again after 5 minutes.

[3] = Salt thickening: viscosity of SLS/SLES/amine oxide formulation vs NaCl content; format: physicochemical; conditions: 1.4% amine oxide, 4.3% SLS, 4.3% SLES, shear rate 3/s
Procedure: The viscosity (cP; shear rate 3/s) of a simple formulation was measured as the salt concentration varied from 0 to 5 wt %.

[4] = Stain removal in cold water, swatch brightness, simple laundry liquid; conditions: 0.05% active additive, compared to LAO
Procedure: Amine oxides with linear and branched hydrophobes were compared in a screen for stain removal in cold water. Simple laundry liquid formulations were made that included only surfactants and builder.
Standard stain swatches were purchased from Testfabrics, Inc. (West Pittston, Pa.). […] The swatches were pre-cut into 2 inch squares. The test formulation was diluted with DI water to 0.06% total surfactant to make the wash solution. Additives were added at a final concentration of 0.05% active in the wash solution. Stained fabric swatches were added to the wash solution, washed and rinsed at 20° C., and air-dried. The average swatch brightness (L*) for each treatment, and standard deviation, are reported for 3 replicates.

[5] = system: zein protein; set-up: species or system corn; conditions: 1% surfactant solution, 30 C, 30 min, triplicate
Procedure: For the test, 0.0750 g of zein protein is transferred into a 1.5 mL centrifuge tube. To this 1.5 mL of 1% surfactant solution is added, mixed, and placed in a 30 C incubator with mild stirring for 30 minutes. After 30 minutes has elapsed, the tube is centrifuged for 30 min at 3600 rpm. The solution is filtered through a pre-weighed 8 micron filter paper, and then dried overnight in a 50° C. oven. The insoluble zein residue is then weighed and the wt % Zein dissolved is calculated using the equation below. Each solution is analyzed in triplicate. The Zein score is normalized to a standard included in each set of tests, in this case LAE10; (% zein dissolved=(total zein added−total zein after drying÷Total zein added)×100).

[6] = Foaming in diluted commercial laundry liquid (Persil Original), Waring blender; format: physicochemical; conditions: for Difference: initial minus 5 min
Procedure: The surface foam volume and foam persistence of solutions of the amine oxides with linear and branched hydrophobes from Examples 25 and 26 were compared. A commercial laundry liquid was diluted in deionized water according to the dosing instructions; 4.2 ml/L Persil Original. The diluted detergent was supplemented with 0%, 2%, 5% (based on wt laundry liquid) of LAO or Branched C12 AO,(2,4-diethyl-N,N-dimethyloctan-1-amine oxide, Example 66), and the solutions mixed briefly and used immediately. 250 ml of each test solution was added the beaker of a Waring blender, capped, and then blended on High for 30 seconds and immediately transferred to a 1 L graduated cylinder. The total volume of foam plus liquid, as well as the liquid layer alone was recorded. The foam and liquid volumes were recorded again after 5 minutes. All tests were performed in triplicate.

Compound	Wet out time [1]	Foam volume (ml) 5 min [2]	Foam volume (ml) Initial [2]	Viscosity ([3]; NaCl 0.5 wt %)	Viscosity ([3]; NaCl 1.0 wt %)	Zein score - normalized to LAE10 [5]	Difference ([6]; Persil + 2% amine oxide)	Difference ([6]; Persil + 5% amine oxide)	other results
4-ethyl-N,N-2-trimethyloctan-1-amine oxide [Example 43]	>300 s	0 mL	267 mL	–	–	–	–	–	% decrease ([2]; foam volume, initial to 5 min): 100%
CCCCC(CC)CC(C)C[N+](C)(C)[O-] (centres unmarked) [Example 43, 4-ethyl-N,N-2-trimethyloctan-1-amine oxide]	–	–	–	7 cP	36 cP	–	–	–	Viscosity ([3]; NaCl 4.0 wt %): 670 cP; Foam in the wash solution [4]: very little foam
CCCCC(CC)CC(CC)C[N+](C)(C)[O-] (centres unmarked) [Example 44, 2,4-diethyl-N,N-dimethyloctan-1-amine oxide]	>300 s	0 mL	370 mL	–	–	0.018	257 mL	280 mL	Initial foam volume ([6]; Persil Original 4.2 ml/L + 2% amine oxide (on wt laundry liquid)): 560 mL
CCCCCCCCCCCC[N+](C)(C)[O-] [LAO, N,N-dimethyl laurylamine oxide, reference compound]	33 s	500 mL	–	2 cP	11 cP	–	54 mL	6 mL	–
Alkylpolyglucoside [APG]	–	–	–	–	–	0.586	–	–	–
Linear alkylbenzene sulfonate [LABS]	–	–	–	–	–	4.670	–	–	–
